US7973181B2, “Hydroxamic acid derivatives as inhibitors of HDAC enzymatic activity” (Chroma Therapeutics Ltd., priority 2005, dated 2011)

How the values were obtained:
[1] = target: histone deacetylase activity (HeLa nuclear extract); experiment: HDAC fluorescent activity assay (Biomol Fluor de Lys), HeLa nuclear extract; type: biochemical; details: Fluor de Lys substrate
Method: The ability of compounds to inhibit histone deacetylase activities was measured using the commercially available HDAC fluorescent activity assay from Biomol. In brief, the Fluor de Lys™ substrate, a lysine with an epsilon-amino acetylation, is incubated with the source of histone deacetylase activity (HeLa nuclear extract) in the presence or absence of inhibitor.
Deacetylation of the substrate sensitises the substrate to Fluor de Lys™ developer, which generates a fluorophore. Thus, incubation of the substrate with a source of HDAC activity results in an increase in signal that is diminished in the presence of an HDAC inhibitor.
Data are expressed as a percentage of the control, measured in the absence of inhibitor, with background signal being subtracted from all samples, as follows: — % activity=((S^i−B)/(S^o−B))×100 where S^i is the signal in the presence of substrate, enzyme and inhibitor, S^o is the signal in the presence of substrate, enzyme and the vehicle in which the inhibitor is dissolved, and B is the background signal measured in the absence of enzyme.
(§1) IC50 values were determined by non-linear regression analysis, after fitting the results of eight data points to the equation for sigmoidal dose response with variable slope (% activity against log concentration of compound), using Graphpad Prism software.
Histone deacetylase activity from crude nuclear extract derived from HeLa cells was used for screening. The preparation, purchased from 4C (Seneffe, Belgium), was prepared from HeLa cells harvested whilst in exponential growth phase. The nuclear extract is prepared according to Dignam JD1983 Nucl. Acid. Res. 11, 1475-1489, snap frozen in liquid nitrogen and stored at −80° C. The final buffer composition was 20 mM Hepes, 100 mM KCl, 0.2 mM EDTA, 0.5 mM DTT, 0.2 mM PMSF and 20% (v/v) glycerol.
Results of testing the compounds of the examples in this assay are given in the second column of Table 1 below.

Hela = experiment: Cell inhibition assay (SRB cell viability), Hela; type: cell-based; details: 72 h, Hela cells
Method: (§2) The corresponding cancer cell lines (Hela, U937 and HUT) growing in log phase were harvested and seeded at 1000 cells/well (200 ul final volume) into 96-well tissue culture plates. Following 24 h of cell growth cells were treated with compounds (final concentration of 20 uM). Plates were then re-incubated for a further 72 h before a sulphorhodamine B (SRB) cell viability assay was conducted according to Skehan 1990 J Natl Canc Inst 82, 1107-1112.
(§3) Data were expressed as a percentage inhibition of the control, measured in the absence of inhibitor, as follows: — % inhibition=100−((S^i/S^o)×100) where S^i is the signal in the presence of inhibitor and S^o is the signal in the presence of DMSO.
as §1
(§4) Results of testing the compounds of the examples in this assay are given in the third- fifth columns of Table 1.

U937 = experiment: Cell inhibition assay (SRB cell viability), U937; type: cell-based; details: U937 cells
Method: as §2, §3, §1, §4

HUT = experiment: Cell inhibition assay (SRB cell viability), HUT; type: cell-based
Method: as §2, §3, §1, §4

| SMILES | IC50 [1] | IC50 (Hela; Homo sapiens, HeLa) | IC50 (U937; Homo sapiens, U-937, 72 h) | IC50 (Hela) | IC50 (U937; 72 h) | IC50 (HUT; 72 h, HUT cells) | IC50 (HUT; HUT cells, 72 h) |
| --- | --- | --- | --- | --- | --- | --- | --- |
| N[C@@H](CCCOc1ccc(CNCc2ccc3cc(C(=O)NO)sc3c2)cc1)C(=O)O [Example 18, (S)-2-Amino-5-(4-{[(2-hydroxycarbamoyl-benzo[b]thiophen-6-ylmethyl)-amino]-methyl}-phenoxy)-pentanoic acid] | 101 to 1000 nM |  |  |  |  |  |  |
| O=C(NO)c1cc2ccc(CNCc3ccc(OCCC[C@H](NC4CCCCC4)C(=O)OC4CCCC4)cc3)cc2s1 [Example 22, (S)-2-Cyclohexylamino-S-(4-{[(2-hydroxycarbamoyl-benzo[b]thiophen-6-ylmethyl)-amino]-methyl}-phenoxy)-pentanoic acid cyclopentyl ester] | 101 to 1000 nM | 330 to 3300 nM | 330 to 3300 nM |  |  | 330 to 3300 nM |  |
| N[C@@H](CCOc1cccc(NC(=O)CCCCCCC(=O)NO)c1)C(=O)O [Example 6, (S)-2-Amino-4-[3-(7-hydroxycarbamoyl-heptanoylamino)-phenoxy]-butyric acid] | 101 to 1000 nM | > 3300 nM | 330 to 3300 nM |  |  | 330 to 3300 nM |  |
| N[C@@H](CC1CCC(Oc2ccc(CNCc3ccc4cc(C(=O)NO)sc4c3)cc2)CC1)C(=O)O (stereo partly drawn) [Example 29, 2-(S)-Amino-3-[4-(4-{[(2-hydroxycarbamoyl-benzo[b]thiophen-6-ylmethyl)-amino]-methyl}-phenoxy)-cyclohexyl]-propionic acid] | < 100 nM |  |  |  |  |  |  |
| N[C@H](CCCOc1ccc(CNCc2ccc3cc(C(=O)NO)sc3c2)cc1)C(=O)O [Example 16, (R)-2-Amino-5-(4-{[(2-hydroxycarbamoyl-benzo[b]thiophen-6-ylmethyl)-amino]-methyl}-phenoxy)-pentanoic acid] | < 100 nM |  |  |  |  |  |  |
| COc1cc(CNCc2ccc3cc(C(=O)NO)sc3c2)ccc1OCCC[C@H](N)C(=O)O [Example 20, (S)-2-Amino-5-(4-{[(2-hydroxycarbamoyl-benzo[b]thiophen-6-ylmethyl)-amino]-methyl}-2-methoxyphenoxy)-pentanoic acid] | < 100 nM |  |  |  |  |  |  |
| COc1cc(CNCc2ccc3cc(C(=O)NO)sc3c2)ccc1OCCC[C@H](N)C(=O)OC1CCCC1 [Example 19, (S)-2-Amino-5-(4-{[(2-hydroxycarbamoyl-benzo[b]thiophen-6-ylmethyl)-amino]-methyl}-2-methoxyphenoxy)-pentanoic acid cyclopentyl ester] | < 100 nM | 330 to 3300 nM | 330 to 3300 nM |  |  | 330 to 3300 nM |  |
| N[C@@H](Cc1ccc(Oc2ccc(CNCc3ccc4cc(C(=O)NO)sc4c3)cc2)cc1)C(=O)O [Example 27, (S)-2-Amino-3-[4-(4-{[(2-hydroxycarbamoyl-benzo[b]thiophen-6-ylmethyl)-amino]-methyl}-phenoxy)-phenyl]-propionic acid] | < 100 nM |  |  |  |  |  |  |
| N[C@H](C(=O)O)c1ccc(Oc2ccc(CNCc3ccc4cc(C(=O)NO)sc4c3)cc2)cc1 [Example 25, (S)-Amino-[4-(4-{[(2-hydroxycarbamoyl-benzo[b]thiophen-6-ylmethyl)-amino]-methyl}-phenoxy)-phenyl]-acetic acid] | < 100 nM |  |  |  |  |  |  |
| N[C@H](CCCOc1ccc(CNCc2ccc3cc(C(=O)NO)sc3c2)cc1)C(=O)OC1CCCC1 [Example 15, (R)-2-Amino-5-(4-{[(2-hydroxycarbamoyl-benzo[b]thiophen-6-ylmethyl)-amino]-methyl}-phenoxy)-pentanoic acid cyclopentyl ester] | < 100 nM | 330 to 3300 nM | < 330 nM |  |  | < 330 nM |  |
| N[C@@H](CCOc1ccc(NC(=O)CCCCCCC(=O)NO)cc1)C(=O)OC1CCCC1 [Example 7, (S)-2-Amino-4-[4-(7-hydroxycarbamoyl-heptanoylamino)-phenoxy]-butyric acid cyclopentyl ester] | 101 to 1000 nM | 330 to 3300 nM | 330 to 3300 nM |  |  | 330 to 3300 nM |  |
| CC(=O)N[C@H](Cc1ccc(NC(=O)CCCCCCC(=O)NO)cc1)C(=O)O [Example 4, (R)-2-Acetylamino-3-[4(7-hydroxycarbamoyl-heptanoylamino)-phenyl]-propionic acid] | > 1000 nM | > 3300 nM | > 3300 nM |  |  | > 3300 nM |  |

Now from value to compound, other results behind:

| IC50 [1] | IC50 (Hela; Homo sapiens, HeLa) | IC50 (U937; Homo sapiens, U-937, 72 h) | IC50 (Hela) | IC50 (U937; 72 h) | SMILES | IC50 (HUT; 72 h, HUT cells) | IC50 (HUT; HUT cells, 72 h) |
| --- | --- | --- | --- | --- | --- | --- | --- |
| < 100 nM |  |  |  |  | NC(C(=O)O)C1CCC(Oc2ccc(CNCc3ccc4cc(C(=O)NO)sc4c3)cc2)CC1 (stereo not shown) [Example 31, Amino-[4(4-{[(2-hydroxycarbamoyl-benzo[b]thiophen-6-ylmethyl)-amino]-methyl}-phenoxy)-cyclohexyl]-acetic acid] |  |  |
| 101 to 1000 nM | > 3300 nM | > 3300 nM |  |  | CC(=O)N[C@H](Cc1ccc(NC(=O)CCCCCCC(=O)NO)cc1)C(=O)OC1CCCC1 [Example 3, (R)-2-Acetylamino-3-[4-(7-hydroxycarbamoyl-heptanoylamino)-phenyl]-propionic acid cyclopentyl ester] | 330 to 3300 nM |  |
| < 100 nM | 330 to 3300 nM | < 330 nM |  |  | NC(C(=O)OC1CCCC1)C1CCC(Oc2ccc(CNCc3ccc4cc(C(=O)NO)sc4c3)cc2)CC1 (stereo not shown) [Example 30, Amino-[4-(4-{[(2-hydroxycarbamoyl-benzo[b]thiophen-6-ylmethyl)-amino]-methyl}-phenoxy)-cyclohexyl]-acetic acid cyclopentyl ester] | < 330 nM |  |
| < 100 nM | 330 to 3300 nM | 330 to 3300 nM |  |  | N[C@@H](CCOc1cccc(NC(=O)CCCCCCC(=O)NO)c1)C(=O)OC1CCCC1 [Example 5, (S)-2-Amino-4-[3-(7-hydroxycarbamoyl-heptanoylamino)-phenoxy]-butyric acid cyclopentyl ester] | 330 to 3300 nM |  |
| 101 to 1000 nM |  |  |  |  | N[C@@H](CCOc1ccc(NC(=O)CCCCCCC(=O)NO)cc1)C(=O)O [Example 8, (S)-2-Amino-4-[4-(7-hydroxycarbamoyl-heptanoylamino)-phenoxy]-butyric Acid] |  |  |
| 101 to 1000 nM | > 3300 nM | > 3300 nM |  |  | CC(=O)N[C@@H](Cc1ccc(NC(=O)CCCCCCC(=O)NO)cc1)C(=O)O [Example 2, (S)-2-Acetylamino-3-[4-(7-hydroxycarbamoyl-heptanoylamino)-phenyl]-propionic acid] | > 3300 nM |  |
| < 100 nM |  |  | 330 to 3300 nM | 330 to 3300 nM | N[C@@H](CCCOc1ccc(CNCc2ccc3cc(C(=O)NO)sc3c2)cc1)C(=O)OC1CCCC1 [Example 17, (S)-2-Amino-5-(4-{[(2-hydroxycarbamoyl-benzo[b]thiophen-6-ylmethyl)-amino]-methyl}-phenoxy)-pentanoic acid cyclopentyl ester] |  | 330 to 3300 nM |
| < 100 nM |  |  |  |  | N[C@@H](CCCOc1ccc(CNCc2ccc3cc(C(=O)NO)sc3c2)cc1)C(=O)O [Example 12, (S)-2-Amino-5-(4-{[(2-hydroxycarbamoyl-benzo[b]thiophen-6-ylmethyl)-amino]-methyl}-phenoxy)-pentanoic acid] |  |  |
| < 100 nM |  |  |  |  | O=C(NO)c1cc2ccc(CNCc3ccc(OCCC[C@H](NC4CCCCC4)C(=O)O)cc3)cc2s1 [Example 23, (S)-2-Cyclohexylamino-5-(4-{[(2-hydroxycarbamoyl-benzo[b]thiophen-6-ylmethyl)-amino]-methyl}-phenoxy)-pentanoic acid] |  |  |
| < 100 nM |  |  |  |  | N[C@@H](CCOc1ccc(CNCc2ccc3cc(C(=O)NO)sc3c2)cc1)C(=O)O [Example 10, (S)-2-Amino-4-(4-{[(2-hydroxycarbamoyl-benzo[b]thiophen-6-ylmethyl)-amino]-methyl}-phenoxy)-butyric acid] |  |  |
